From patent US20240139211A1, “METHODS AND COMPOSITIONS FOR TREATING AMYOTROPHIC LATERAL SCLEROSIS” (Amylyx Pharmaceuticals, Inc., priority 2022, published 2024)
Where two headings read alike, the source gives them in different places.

Key:
[1] = test system: CYP3A4/5; assay: CYP3A4/5 enzyme activity induction in hepatocyte cultures
[2] = test system: CYP1A2; assay: CYP1A2 enzyme activity induction in hepatocyte cultures
[3] = molecular target: hrCYP2D6 (Homo sapiens, UniProt P10635); assay: CYP reaction phenotyping with hrCYP2D6 (% remaining); assay type: in vitro ADME; settings: for % Remaining of TA: hrCYP2D6 20 pmol CYP/mL, 5 μM TA, PB and TUDCA co-incubated
[4] = molecular target: T1, CYPs in human liver microsomes (HLM) (Homo sapiens, UniProt P20813); assay: CYP reaction phenotyping in HLM with chemical inhibitors (% remaining); settings: +NADPH +thio-TEPA (CYP2B6)
T1 sequence (P20813 1-491): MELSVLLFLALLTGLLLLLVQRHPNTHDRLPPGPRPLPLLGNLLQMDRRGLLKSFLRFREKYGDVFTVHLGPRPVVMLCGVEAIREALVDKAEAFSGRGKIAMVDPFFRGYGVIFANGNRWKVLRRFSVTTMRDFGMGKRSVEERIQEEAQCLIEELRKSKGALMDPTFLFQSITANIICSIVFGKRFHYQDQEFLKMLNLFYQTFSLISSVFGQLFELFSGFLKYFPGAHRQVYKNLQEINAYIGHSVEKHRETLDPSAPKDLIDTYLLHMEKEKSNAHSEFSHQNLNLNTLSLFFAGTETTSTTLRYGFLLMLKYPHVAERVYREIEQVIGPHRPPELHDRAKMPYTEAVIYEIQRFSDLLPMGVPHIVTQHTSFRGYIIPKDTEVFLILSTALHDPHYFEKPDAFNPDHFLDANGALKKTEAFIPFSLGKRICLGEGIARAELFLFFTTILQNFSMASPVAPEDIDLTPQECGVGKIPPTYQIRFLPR

[5] = molecular target: T2, CYPs in human liver microsomes (HLM) (Homo sapiens, UniProt P10632); assay: as above; settings: +NADPH +montelukast (CYP2C8)
T2 sequence (P10632 1-490): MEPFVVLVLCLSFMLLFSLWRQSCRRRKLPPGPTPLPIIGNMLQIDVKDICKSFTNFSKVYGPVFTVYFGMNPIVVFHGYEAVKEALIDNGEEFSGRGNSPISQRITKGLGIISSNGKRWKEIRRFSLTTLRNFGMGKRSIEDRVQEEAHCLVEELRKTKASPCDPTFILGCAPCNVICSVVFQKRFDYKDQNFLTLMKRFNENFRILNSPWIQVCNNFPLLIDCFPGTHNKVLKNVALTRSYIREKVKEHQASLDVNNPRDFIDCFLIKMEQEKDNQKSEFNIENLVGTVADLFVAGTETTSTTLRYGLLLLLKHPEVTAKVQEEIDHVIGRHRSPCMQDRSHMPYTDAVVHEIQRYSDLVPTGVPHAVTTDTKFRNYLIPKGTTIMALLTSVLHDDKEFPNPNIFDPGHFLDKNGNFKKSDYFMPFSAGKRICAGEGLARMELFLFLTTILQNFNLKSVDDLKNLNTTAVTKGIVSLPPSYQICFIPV

[6] = molecular target: CYPs in human liver microsomes (HLM) (Homo sapiens, UniProt P11712); settings: 5 min
[7] = molecular target: CYPs in human liver microsomes (HLM) (Homo sapiens, UniProt P10635); settings: 5 min
[8] = molecular target: T1, CYPs in human liver microsomes (HLM); settings: 1 h
[9] = test system: CYPs in human liver microsomes (HLM)
[10] = molecular target: T3, OCT2 (Homo sapiens, UniProt O15244); assay: OCT2 inhibition, MPP+ uptake in transfected HEK cells; settings: read-out: Estimated IC50 toward OCT2; TUDCA and PB present simultaneously
T3 sequence (O15244 1-555): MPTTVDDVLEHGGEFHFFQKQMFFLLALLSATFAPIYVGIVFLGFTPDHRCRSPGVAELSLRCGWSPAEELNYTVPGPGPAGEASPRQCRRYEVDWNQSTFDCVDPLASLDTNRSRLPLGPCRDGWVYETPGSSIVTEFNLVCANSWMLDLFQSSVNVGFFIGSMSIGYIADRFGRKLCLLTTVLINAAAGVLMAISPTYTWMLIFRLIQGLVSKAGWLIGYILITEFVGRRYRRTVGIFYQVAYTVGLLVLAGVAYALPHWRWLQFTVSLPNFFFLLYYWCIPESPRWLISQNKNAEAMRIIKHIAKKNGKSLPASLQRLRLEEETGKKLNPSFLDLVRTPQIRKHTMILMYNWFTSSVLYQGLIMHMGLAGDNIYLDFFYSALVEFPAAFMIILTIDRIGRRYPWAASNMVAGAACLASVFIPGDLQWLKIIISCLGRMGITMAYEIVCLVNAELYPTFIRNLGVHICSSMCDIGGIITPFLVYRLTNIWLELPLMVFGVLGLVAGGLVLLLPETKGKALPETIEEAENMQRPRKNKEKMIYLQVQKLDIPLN

Chain of hrCYP2D6 (P10635 whole entry): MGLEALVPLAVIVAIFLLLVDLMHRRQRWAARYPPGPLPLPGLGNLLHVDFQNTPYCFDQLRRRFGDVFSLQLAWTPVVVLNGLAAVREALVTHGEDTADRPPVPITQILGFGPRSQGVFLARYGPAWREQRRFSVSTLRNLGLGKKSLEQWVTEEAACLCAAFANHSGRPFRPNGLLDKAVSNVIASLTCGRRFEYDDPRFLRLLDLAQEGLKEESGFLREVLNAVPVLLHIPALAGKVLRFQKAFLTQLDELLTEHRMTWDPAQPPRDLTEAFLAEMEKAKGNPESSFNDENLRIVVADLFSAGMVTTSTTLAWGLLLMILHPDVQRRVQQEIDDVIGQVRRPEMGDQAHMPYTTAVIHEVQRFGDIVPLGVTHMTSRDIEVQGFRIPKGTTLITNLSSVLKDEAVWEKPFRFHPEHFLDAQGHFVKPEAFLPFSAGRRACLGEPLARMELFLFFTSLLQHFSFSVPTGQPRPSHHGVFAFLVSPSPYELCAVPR
Chain of CYPs in human liver microsomes (HLM) (Homo sapiens, UniProt P11712) (P11712 whole entry): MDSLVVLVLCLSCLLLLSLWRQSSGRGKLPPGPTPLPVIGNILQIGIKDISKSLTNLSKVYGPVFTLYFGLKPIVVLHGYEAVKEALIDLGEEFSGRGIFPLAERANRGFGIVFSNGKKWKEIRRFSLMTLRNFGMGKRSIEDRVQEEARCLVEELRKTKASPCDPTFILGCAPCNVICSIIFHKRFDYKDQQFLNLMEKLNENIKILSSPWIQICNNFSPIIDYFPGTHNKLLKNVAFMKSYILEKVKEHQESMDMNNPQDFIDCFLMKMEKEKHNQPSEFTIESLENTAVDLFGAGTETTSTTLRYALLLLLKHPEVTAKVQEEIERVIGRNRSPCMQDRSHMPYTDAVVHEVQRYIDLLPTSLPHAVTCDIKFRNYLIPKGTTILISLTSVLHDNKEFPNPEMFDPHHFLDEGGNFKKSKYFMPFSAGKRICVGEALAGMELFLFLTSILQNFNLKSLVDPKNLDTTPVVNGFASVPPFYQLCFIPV
Chain of CYPs in human liver microsomes (HLM) (Homo sapiens, UniProt P10635) (P10635 whole entry): as the sequence (P10635 whole entry) above

For C[C@H](CCC(=O)NCC(=O)O)[C@H]1CC[C@H]2[C@@H]3[C@@H](O)C[C@@H]4C[C@H](O)CC[C@]4(C)[C@H]3CC[C@]12C [Glycoursodeoxycholic acid, glycoursodeoxycholic acid], the “Maximum fold induction of CYP3A4/5 activity” value ([1]; Donor 1) was 1.34 fold, the “Maximum fold induction of CYP3A4/5 activity” value ([1]; Donor 2) was 1.98 fold and the “Maximum fold induction of CYP3A4/5 activity” value ([1]; Donor 3) was 2.70 fold. The “Maximum fold induction of CYP1A2 activity” value ([2]; Donor 1, 72±2 h, three concentrations) was 5.93 fold, the “Maximum fold induction of CYP1A2 activity” value ([2]; Donor 2) was 3.08 fold and the “Maximum fold induction of CYP1A2 activity” value ([2]; Donor 3) was 9.43 fold.

With O=C(O)CCCc1ccccc1 [PB, sodium phenylbutyrate] the “% remaining after 60 minutes” value ([3]; human, 1 h, 5 µM, pH 7.4) was “greater than 90%”.

For tauroursodeoxycholic acid [TUDCA], the “% remaining of TA in HLM” value ([4]; 5 min) was 112%, the “% remaining of TA in HLM” value ([4]; 10 min) was 112% and the “% remaining of TA in HLM” value ([4]; 20 min) was 122%. For the same compound, the “% remaining of TA in HLM” value ([4]; 30 min) was 116%, the “% remaining of TA in HLM” value ([5]; 5 min) was 101% and the “% remaining of TA in HLM” value ([5]; 10 min) was 103%. The “% remaining of TA in HLM” value ([5]; 20 min) was 95.5%, the “% remaining of TA in HLM” value ([5]; 30 min) was 105% and the “% remaining of TA in HLM” value ([5]; 60 min) was 97.7%. For the same compound, the “% remaining of TA in HLM” value [6] was 102%, the “% remaining of TA in HLM” value [7] was 101% and the “% remaining of TA in HLM” value [8] was 102%. For the same compound, the “% remaining of TA in HLM” value ([9]; 5 min) was 103%, the “% remaining of TA in HLM” value ([9]; 1 h) was 105% and the IC50 [10] was > 162 µM. The “% Remaining of TA” value ([3]; 0 min) was 100%, the “% Remaining of TA” value ([3]; 5 min) was 98.4% and the “% Remaining of TA” value ([3]; 10 min) was 97.8%. The “% Remaining of TA” value ([3]; 20 min) was 97.0%, the “% Remaining of TA” value ([3]; 30 min) was 99.2% and the “% Remaining of TA” value ([3]; 60 min) was 98.6%.
